System: R. pulicis
Format: cell-based, Rickettsia pulicis

Q: Which “inhibitory at single concentration tested” value does the source give for `CO[C@H]1/C=C/O[C@@]2(C)Oc3c(C)c(O)c4c(O)c(c(/C=N/N5CCN(C)CC5)c(O)c4c3C2=O)NC(=O)/C(C)=C\C=C\[C@H](C)[C@H](O)[C@@H](C)[C@@H](O)[C@@H](C)[C@H](OC(C)=O)[C@@H]1C` [Rifampin] here?
A: inhibitory

From patent US20030003508A1 (priority 1999, published 2003)
